Assay [1] concerns linear viral DNA (circularization). It is filed as biochemical, HIV-1. The protocol: The chronically HIV-1 infected Molt IIIB human T cell line (HTLV IIIB virus strain) was the source of virus for cell-free infections. This human T cell line constitutively produces a low level of the HTLV-111B strain of HIV-1. Culture supernatant containing a high concentration of virus was prepared by incubating 300×10^6 Molt IIIB cells in 50 ml fresh RPMI 1640 medium containing 20% fetal calf serum and 10 ng of phorbol 12-myristate 13-acetate per ml for 20-24 hours. […] Cytoplasmic extracts (3 ml) were prepared 4-4.5 hours post-infection, by a modification of the procedure of Brown et al., Cell 49: 342-356 (1987).
At specified times after infection, cells were washed twice with buffer K (20 mM Hepes, pH 7.4, 150 mM KCl, 5 mM MgCl2, 1 mM dithiothreitol, […]) and then lysed at a concentration of 33×10^6 cells per ml in the same buffer containing 0.025% digitonin or 0.025% Triton X-100. Cells were extracted for 10 minutes at room temperature, and the lysate was centrifuged at 1000×g for 3 minutes, and is referred to as "cytoplasmic extract". Cytoplasmic extract was the source of viral DNA for analyses in the assays described below. The pellet from the initial low-speed centrifugation contained cell debris and intact nuclei and is called the "nuclear pellet". Cell extracts from uninfected SupT1 cells were prepared in the same manner.
Viral DNA present in cytoplasmic extracts was deproteinated by incubation with proteinase K (1 mg/ml)/10 mM EDTA/0.5% SDS for 1 hour at 55° C. Samples were extracted successively with phenol/chloroform [1:1 (vol/vol)] and chloroform. DNA was ethanol-precipitated, washed with 70% ethanol, resuspended in 10 mM Tris.HCI (pH 7.4), and treated with RNase A (20 μpg/ml)for 1 hour at […]. before analysis by agarose gel electrophoresis and Southern blotting.
DNA samples were layered on 0.8% agarose gels and electrophoresed at 1 V/cm for 15 hour in Tris/acetate/EDTA buffer. After electrophoresis, DNA was blotted by capillary action onto nitrocellulose (0.45 μm, Schleicher & Schuell).
Cell extracts were prepared from cells four to five hours after infection with HIV-1, using the above-described methods to yield fully functional viral preintegration complexes. […] In all cases, a HIV-1 LTR-containing DNA fragment was used as a hybridization probe. Therefore, only LTR-containing DNA fragments are detected. […] Lane 5: Unintegrated viral DNA prepared by Hirt extraction of SupT1 cells infected 24 hours earlier with concentrated HIV-1. […] Viral DNA was purified from extracts incubated with 1 mM ATP for 15 minutes (lanes 1 and 4), with 1 mM ATP for 45 minutes (lanes 3 and 6), or with 1 mM ATPγS for 45 minutes (lanes 2 and 5). Lanes 1-3: uncut viral DNA; lanes 4-6: viral DNA was cut with SalI prior to electrophorosis. Lane 7: linear viral DNA, prepared from untreated extracts was digested with SalI prior to electrophorosis. Lane 8: unintegrated viral DNA prepared by Hirt extraction of infected cells, as described with respect to FIG. 14, digested with SalI prior to electrophoresis. […] Lanes 1-3. Viral DNA prepared from extracts treated with 1 mM ATP for 15 minutes, 30 minutes and 45 minutes, respectively. Lane 4: Viral DNA prepared from extract treated with 1 mM ATPγS for 45 minutes. Lanes 5-7: products of reactions shown in lanes 1-3, respectively, digested with SalI and PstI prior to electrophoresis. Lane 8: SalI, PstI digestion of viral DNA prepared from extract treated with 1 mM ATP for 90 minutes. Lane 9: SalI, PstI digestion of reaction products shown in lane 4. Lane 10: SalI, PstI digestion of unintegrated viral DNA prepared by Hirt extraction of infected cells.

Assay [2] deals with purified linear viral DNA. Briefly: Circularization of purified linear viral DNA in cytoplasmic extracts of uninfected SupT1 cells. The note with it: 1 mM, 37° C., 45 min. It counts as biochemical, HIV-1. The protocol: Further evidence of a role for host proteins in the formation of the 1-LTR and simple 2-LTR circular forms of viral DNA was obtained by testing the ability of uninfected cell extracts to mediate the circularization of purfied viral DNA. Linear viral DNA was prepared from cytoplasmic extracts of uninfected cells by SDS-proteinase K treatment and phenol extraction. The purfied DNA was added to cytoplasmic extracts prepared form uninfected SupT1 cells, in the presence or absence of added ATP.
Linear viral DNA was purified from cytoplasmic extracts of cells 4 hours post-infection as described above. In FIG. 22, a purified linear viral DNA was added to cytoplasmic extracts from uninfected SupT1 cells and incubated at 37° C. for 45 minutes. The uninfected SupT1 cells used for the preparation of extracts were either untreated (lanes 3-11) or cultured in the presence of 10 ng/ml phorbol 12-myristate 13-acetate for six hours prior to extraction (lane 2). […] Lanes 2-11: reaction products following incubation of purified linear viral DNA in uninfected extracts containing 1 mM ATP (lanes 2 and 3), nothing added (lane 4), 1 mM dATP (lane 5), 1 mM UTP (lane 6), 1 mM CTP (lane 7), 1 mM GTP (lane 8), 1 mM ATPγS (lane 9), or 1 mM ADP (lane 10). Lane 11: uninfected SupT1 cell extract was treated with proteinase K for 10 minutes at 37° C., then linear viral DNA was added and incubation continued for 45 minutes. In FIG. 23, lanes 1, 2, 4 and 5: purified linear viral DNA was incubated with T4 DNA ligase (lane 1), T4 polynucleotide kinase and T4 DNA ligase (lane 2), Klenow fragment of E. coli DNA polymerase I and T4 DNA ligase […], or Klenow fragment, T4 polynucleotide kinase, and T4 DNA ligase (lane 4). Lanes 3 and 6: in vitro circularization reaction products generated in cell extracts, included as size standards. Lane 3: cytoplasmic extracts from infected cells were incubated with […] for 45 minutes; lane 6: purified linear viral DNA was incubated with cytoplasmic extract from uninfected SupT1 cells in the presence of 1 mM ATP for 45 minutes. The possibility that a host DNA ligase was responsible for the formation of the simple 2-LTR circles was examined by testing the ability of phage T4 ligase to catalyze the circularization of linear viral DNA. […] Restriction endonuclease analysis of the reaction products formed in the presence of both Klenow fragment and T4 DNA ligase confirmed the formation of new 2-LTR junctions (not shown). […] This observation is consistent with previous reports that linear viral DNA prepared from cells infected with the murine leukemia virus [Fujiwara and Mizuuchi, Cell, 54:497-504 (1988) and HIV-1 [Pauza, Virology, 179:886-887 (1990)] consists of a mixture of molecules that are either blunt-ended or recessed by two nucleotides at each 3'-terminus. The removal of the two terminal nucleotides is mediated by the viral integrase as a necessary step in the process of integration [Roth et al., Cell 58: 47-54 (1989)]. […] This would explain the requirement of DNA polymerase for the subsequent joining of the ends of viral DNA by DNA ligase.

Like-named read-outs stand apart in the source and are kept apart here.

For the molecule `Nc1ncnc2c1ncn2[C@H]1CC[C@@H](COP(=O)(O)OP(=O)(O)OP(=O)(O)O)O1` [ddATP, dideoxyadenesine triphosphate], in assay [1] (1 mM, 37° C., 45 min), the “induction of 1-LTR circular form” value is “unable to induce detectable amounts of the 1-LTR circular forms” and the “induction of 2-LTR circles” value was “induced the formation of 2-LTR circles”.
`O=c1ccn([C@@H]2O[C@H](COP(=O)(O)OP(=O)(O)OP(=O)(O)O)[C@@H](O)[C@H]2O)c(=O)[nH]1` [UTP]: in assay [2], the “1-LTR circles from purified linear viral DNA” value (“1-LTR circles” for short) was “able to induce the formation of 1-LTR circles” and the “2-LTR circles from purified linear viral DNA” value is reported as “failed to induce the formation of detectable 2-LTR circles”. For the same molecule, in assay [1] (1 mM, 37° C., 45 min), the “induction of 1-LTR circular form” value is reported as “induced the formation of only a small amount of the 1-LTR circular form” and the “induction of 2-LTR circles” value is on record as “induced the formation of 2-LTR circles”.
As for `Nc1ncnc2c1ncn2[C@H]1C[C@H](O)[C@@H](COP(=O)(O)OP(=O)(O)OP(=O)(O)O)O1` [dATP, deoxyadenosine triphosphate], in assay [2], the “1-LTR circles” value is listed as “able to induce the formation of 1-LTR circles” and the “2-LTR circles from purified linear viral DNA” value is on record as “failed to induce the formation of detectable 2-LTR circles”. For the same molecule, the “induction of both circular forms” value in assay [1] (1 mM, 37° C., 45 min) was “induced both circular forms with an efficiency comparable to ATP”.
As for `Cc1cn([C@H]2CC[C@@H](COP(=O)(O)OP(=O)(O)OP(=O)(O)O)O2)c(=O)[nH]c1=O` [ddTTP], in assay [1] (1 mM, 37° C., 45 min), the “induction of 1-LTR circular form” value is “unable to induce detectable amounts of the 1-LTR circular forms” and the “induction of 2-LTR circles” value was “induced the formation of 2-LTR circles”.
For `Nc1ncnc2c1ncn2[C@@H]1O[C@H](CO)[C@@H](O)[C@H]1O` [adenosine], the “circular DNA forms observed” value in assay [1] (1 mM, 37° C., 45 min) was “No circular DNA forms were observed”.
On to `Nc1cc[nH]c(=O)n1` [cytosine], for which, in assay [1] (1 mM, 37° C., 45 min), the “circular DNA forms observed” value was “No circular DNA forms were observed”.
On the same count and under the same terms, next, `Nc1nc2c(ncn2[C@@H]2O[C@H](CO)[C@@H](O)[C@H]2O)c(=O)[nH]1` [guanosine]: “No circular DNA forms were observed”; `Nc1ncnc2c1ncn2[C@@H]1O[C@H](COP(=O)(O)O)[C@@H](O)[C@H]1O` [AMP]: “No circular DNA forms were observed”.
On the same count and under the same terms, next, `Nc1ncnc2nc[nH]c12` [adenine]: “No circular DNA forms were observed”.
Still for that read-out and setting: the value for `Nc1nc2c(ncn2[C@@H]2O[C@H](COP(=O)(O)OP(=O)(O)O)[C@@H](O)[C@H]2O)c(=O)[nH]1` [GDP] was “No circular DNA forms were observed”.
As to `Nc1ccn([C@@H]2O[C@H](COP(=O)(O)OP(=O)(O)OP(=O)(O)O)[C@@H](O)[C@H]2O)c(=O)n1` [CTP, cytosine triphosphate], in assay [2], the “1-LTR circles” value is on record as “able to induce the formation of 1-LTR circles” and the “2-LTR circles from purified linear viral DNA” value is “failed to induce the formation of detectable 2-LTR circles”. Besides, in assay [1], the “induction of 1-LTR circular form” value is “induced the formation of only a small amount of the 1-LTR circular form” and the “induction of 2-LTR circles” value was “induced the formation of 2-LTR circles”.
Regarding `Nc1ncnc2c1ncn2[C@@H]1O[C@H](CO)C[C@H]1O` [cordycepin, 3'-deoxyadenosine], the “circular DNA forms observed” value in assay [1] (1 mM, 37° C., 45 min) was “No circular DNA forms were observed”.
For `Nc1ccn([C@H]2CC[C@@H](COP(=O)(O)OP(=O)(O)OP(=O)(O)O)O2)c(=O)n1` [ddCTP], in assay [1] (1 mM, 37° C., 45 min), the “induction of 1-LTR circular form” value was “unable to induce detectable amounts of the 1-LTR circular forms” and the “induction of 2-LTR circles” value is listed as “induced the formation of 2-LTR circles”.
Turning to `Nc1ncnc2c1ncn2[C@@H]1O[C@H](COP(=O)(O)OP(=O)(O)O)[C@@H](O)[C@H]1O` [ADP], the “circular DNA forms observed” value in assay [1] (1 mM, 37° C., 45 min) was “No circular DNA forms were observed”.
On to `Nc1nc2c(ncn2[C@H]2CC[C@@H](COP(=O)(O)OP(=O)(O)OP(=O)(O)O)O2)c(=O)[nH]1` [dd-GTP], for which, in assay [1] (1 mM, 37° C., 45 min), the “induction of 1-LTR circular form” value is on record as “unable to induce detectable amounts of the 1-LTR circular forms” and the “induction of 2-LTR circles” value is “induced the formation of 2-LTR circles”.
For the molecule `O=c1cc[nH]c(=O)[nH]1` [uracil], the “circular DNA forms observed” value in assay [1] (1 mM, 37° C., 45 min) was “No circular DNA forms were observed”.
As for `Nc1nc2c(ncn2[C@@H]2O[C@H](COP(=O)(O)OP(=O)(O)OP(=O)(O)O)[C@@H](O)[C@H]2O)c(=O)[nH]1` [GTP, guanosine triphosphate], in assay [1] (1 mM, 37° C., 45 min), the “induction of 1-LTR circular form” value is recorded as “induced the formation of only a small amount of the 1-LTR circular form” and the “induction of 2-LTR circles” value is “induced the formation of 2-LTR circles”.
For the molecule `Nc1nc2nc[nH]c2c(=O)[nH]1` [guanine], the “circular DNA forms observed” value in assay [1] (1 mM, 37° C., 45 min) was “No circular DNA forms were observed”.

Values taken from patent US5759768A, “Assays for factors affecting circularization of DNA, assays for factors affecting DNA integration, factors, and uses thereof” (priority 1995, dated 1998).
